Patent US11160785B2, “Methods and compositions for improving cognitive function” (AgeneBio, Inc., priority 2013, dated 2021)

Columns and labels:
[1] = system: reelin in Entorhinal Cortex (EC2); assay: reelin in entorhinal cortex after four weeks of osmotic minipump treatment (Example 5); format: in vivo, rat; conditions: levetiracetam 10 mg/kg/day in osmotic minipumps for four weeks, aged-impaired rats
[2] = system: entorhinal cortex of aMCI subjects; assay: fMRI activity in entorhinal cortex (EC) during successful memory judgments; format: in vivo, human; conditions: levetiracetam 125 mg twice a day for two weeks vs placebo
[3] = system: reelin in Entorhinal Cortex (EC2); assay: Reelin mRNA in situ hybridization in entorhinal cortex of aged-impaired rats; format: in vivo, rat; conditions: 10 mg/kg/day for 28 days, compared to AI-VEH, p=0.033
Method: In situ hybridization was carried out as described by Haberman et al., (2008). Free-floating tissue sections were washed in 0.75% glycine in 0.1M phosphate buffer two times, followed by a single wash in phosphate buffer. After that, sections were reacted in Proteinase K buffer containing 1.0 μg/ml proteinase K for 30 minutes at 37° C. Sections were then treated with acetic anhydride solution (11.3% triethanolamine, 0.25% acetic anhydride, 0.04 M acetic acid) for 10 minutes at room temperature. This was followed by two 15-minute washes in 2× sodium chloride/citrate buffer (SSC buffer; 20× concentration, 3M NaCl, 0.3M sodium citrate). Next, sections were transferred to hybridization buffer containing 20% formamide, 0.4×Denhardt's solution, 4% dextran sulfate, and 1.6×SSC) supplemented with 0.25 mg/ml tRNA, 0.33 mg/ml sheared salmon sperm DNA, 100 mM DTT, and 1×10^7 cpm/ml 35S-UTP-labeled probe for overnight reaction at 60° C. The following day, sections were washed at 60° C. in 4×SSC/0.01M DTT and 2×SSC/50% formamide. They were then incubated with RNase (20 μg/ml) at 37° C. for 30 min. […] Slides were dried overnight, exposed to a phosphoimager screen, and quantified by using ImageQuant (GE Healthcare). Digital images were acquired of entorhinal cortical sections from the same levels for all animals and the subregion of interest was outlined and quantified. […]

somatostatin in DG hilus = assay: Somatostatin (SOM) immunohistochemistry, hilar interneuron counts in aged-impaired rats; format: in vivo, rat; conditions: 10 mg/kg/day, four-week treatment, AI-LEV vs AI-VEH p<0.01, AI-LEV vs Y p=0.679
Text: Tissue was labeled with anti-SOM antiserum (Santa Cruz Biotechnology; cat. no. SC7819-P) using an established immunoperoxidase protocol and tissue sections were processed concurrently to minimize inter-replication variability (Haberman et al., 2009). The anti-SOM antiserum can detect somatostatin. Briefly, sections were washed in 0.1M phosphate-buffered saline (PBS) to remove cryoprotectant, and endogenous peroxidases were quenched in 0.3% H202 in PBS. After additional PBS washes, sections were blocked in 5% normal horse serum in PBS with 0.3% Triton. Sections were then incubated with primary antibody at a dilution of 1:1600 in PBS containing 0.15% Triton and 3% normal serum for 72 hours at 4° C. with agitation. […] The secondary antibody was detected with avidin-biotin complex (ABC Elite; Vector Laboratories Inc., Burlingame, Calif.) and the avidin-biotin complex was visualized with nickel-enhanced diaminobenzadine (Vector Laboratories Inc., Burlingame, Calif.). […]
Interneuron quantification was performed using a Zeiss Axioplan 2 microscope equipped with a motorized stage. […] Neuron counts were analyzed as the total number of hilar interneurons per hippocampal section for each rat.

[4] = cited from earlier work
[5] = system: DG/CA3 regions of aMCI subjects; assay: fMRI activity in DG/CA3 during lure stimuli correctly identified as similar; format: in vivo, human
sematostatin in DG hilus = assay: somatostatin in DG hilus after four weeks of osmotic minipump treatment (Example 5); format: in vivo, rat; conditions: levetiracetam 10 mg/kg/day in osmotic minipumps for four weeks, aged-impaired rats

Compound: CC[C@@H](C(N)=O)N1CCCC1=O [levetiracetam, (2S)-2-(2-oxopyrrolidin-1-yl) butanamide]
- reelin in Entorhinal Cortex (EC2) [1]: restores reelin in Entorhinal Cortex (EC2)
- EC activity during memory judgments [2]: normalizes activity
- reelin mRNA expression in the lateral entorhinal cortex (EC2) [3]: significantly increased the expression of reelin
- levels of somatostatin in DG hilus (number of SOM-immunoreactive hilar neurons) (somatostatin in DG hilus): restores the levels of somatostatin
- plasma half-life expected in elderly ([4]; elderly, decreased renal function): 9 to 10 h
- absorption ([4]; in vivo, po): rapidly and almost completely absorbed
- time of peak plasma concentrations ([4]; in vivo, po): about 1 hour
- plasma half-life ([4]; in vivo): approximately 7±1 hour
- time to steady state ([4]; in vivo): 2 days
- effect of food on bioavailability ([4]; oral): not affected by food
- DG/CA3 hyperactivity during successful memory judgments ([5]; levetiracetam 62.5 mg BID for two weeks, cohort N=20): does not significantly reduce the DG/CA3 hyperactivity
- DG/CA3 activity during successful memory judgments ([5]; levetiracetam 125 mg twice a day for two weeks vs placebo, same aMCI subjects, p=0.037): reduces DG/CA3 hyper-activity
- DG/CA3 hyperactivity during successful memory judgments ([5]; levetiracetam 250 mg BID for two weeks, cohort N=17): does not significantly reduce the DG/CA3 hyperactivity
- somatostatin in DG hilus (sematostatin in DG hilus): restores sematostatin in DG hilus
